Where “and” joins values, the source holds several entries; their conditions need not be identical. Equal values may be shown once.
Key:
[1] = target: T1, Alpha-1A adrenergic receptor (Homo sapiens, UniProt P35348)
T1 sequence (P35348 whole entry): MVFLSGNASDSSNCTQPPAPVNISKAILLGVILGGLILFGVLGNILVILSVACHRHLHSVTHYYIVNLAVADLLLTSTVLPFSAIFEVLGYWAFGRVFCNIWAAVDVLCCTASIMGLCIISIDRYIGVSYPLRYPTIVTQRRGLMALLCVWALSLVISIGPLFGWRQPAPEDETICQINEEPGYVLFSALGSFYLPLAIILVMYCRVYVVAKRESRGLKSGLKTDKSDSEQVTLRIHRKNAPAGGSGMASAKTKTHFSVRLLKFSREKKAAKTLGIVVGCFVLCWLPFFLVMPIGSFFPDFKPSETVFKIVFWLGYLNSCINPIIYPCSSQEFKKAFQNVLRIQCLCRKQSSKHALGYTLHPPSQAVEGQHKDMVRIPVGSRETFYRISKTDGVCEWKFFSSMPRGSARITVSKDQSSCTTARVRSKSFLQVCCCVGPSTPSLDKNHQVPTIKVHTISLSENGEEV

[2] = target: T2, Muscarinic acetylcholine receptor M1 (Homo sapiens, UniProt P11229)
T2 sequence (P11229 whole entry): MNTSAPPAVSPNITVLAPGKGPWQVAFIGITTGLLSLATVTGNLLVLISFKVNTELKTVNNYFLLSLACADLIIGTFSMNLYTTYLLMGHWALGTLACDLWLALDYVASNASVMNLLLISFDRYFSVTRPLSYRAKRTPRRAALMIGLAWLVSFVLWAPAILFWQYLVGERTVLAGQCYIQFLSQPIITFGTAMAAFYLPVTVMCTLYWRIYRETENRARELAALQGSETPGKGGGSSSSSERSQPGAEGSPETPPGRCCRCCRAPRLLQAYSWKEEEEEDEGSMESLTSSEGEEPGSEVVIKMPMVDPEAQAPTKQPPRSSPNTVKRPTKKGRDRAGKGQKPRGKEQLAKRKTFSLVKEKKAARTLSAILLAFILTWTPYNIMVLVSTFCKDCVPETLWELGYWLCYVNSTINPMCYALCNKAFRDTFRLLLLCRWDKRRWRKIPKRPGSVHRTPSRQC

[3] = target: Cannabinoid receptor 1 (Homo sapiens, UniProt P21554); assay type: functional
[4] = target: T1, Alpha-1A adrenergic receptor; remark: listed apart in the source
[5] = target: T3, Estrogen receptor (Homo sapiens, UniProt P03372); assay type: functional
T3 sequence (P03372 whole entry): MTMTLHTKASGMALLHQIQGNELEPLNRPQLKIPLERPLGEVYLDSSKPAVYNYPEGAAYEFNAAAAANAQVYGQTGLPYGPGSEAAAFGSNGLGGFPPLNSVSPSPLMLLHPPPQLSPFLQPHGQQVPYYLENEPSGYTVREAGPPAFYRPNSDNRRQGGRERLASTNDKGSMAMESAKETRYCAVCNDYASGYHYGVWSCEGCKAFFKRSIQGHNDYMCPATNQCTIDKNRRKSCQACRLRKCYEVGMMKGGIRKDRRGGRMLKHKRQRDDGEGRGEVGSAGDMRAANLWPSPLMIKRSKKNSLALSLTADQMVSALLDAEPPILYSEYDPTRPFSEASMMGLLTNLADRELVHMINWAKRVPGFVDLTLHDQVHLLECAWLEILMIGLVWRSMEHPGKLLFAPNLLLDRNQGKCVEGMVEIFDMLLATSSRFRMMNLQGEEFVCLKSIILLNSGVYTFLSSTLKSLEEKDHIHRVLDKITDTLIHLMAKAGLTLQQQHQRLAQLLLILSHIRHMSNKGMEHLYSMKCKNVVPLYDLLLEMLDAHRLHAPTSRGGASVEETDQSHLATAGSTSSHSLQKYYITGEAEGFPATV

[6] = target: Gamma-aminobutyric acid type B receptor subunit 1 (Homo sapiens, UniProt Q9UBS5)
[7] = target: T4, Glucocorticoid receptor (Homo sapiens, UniProt P04150); assay type: functional
T4 sequence (P04150 whole entry): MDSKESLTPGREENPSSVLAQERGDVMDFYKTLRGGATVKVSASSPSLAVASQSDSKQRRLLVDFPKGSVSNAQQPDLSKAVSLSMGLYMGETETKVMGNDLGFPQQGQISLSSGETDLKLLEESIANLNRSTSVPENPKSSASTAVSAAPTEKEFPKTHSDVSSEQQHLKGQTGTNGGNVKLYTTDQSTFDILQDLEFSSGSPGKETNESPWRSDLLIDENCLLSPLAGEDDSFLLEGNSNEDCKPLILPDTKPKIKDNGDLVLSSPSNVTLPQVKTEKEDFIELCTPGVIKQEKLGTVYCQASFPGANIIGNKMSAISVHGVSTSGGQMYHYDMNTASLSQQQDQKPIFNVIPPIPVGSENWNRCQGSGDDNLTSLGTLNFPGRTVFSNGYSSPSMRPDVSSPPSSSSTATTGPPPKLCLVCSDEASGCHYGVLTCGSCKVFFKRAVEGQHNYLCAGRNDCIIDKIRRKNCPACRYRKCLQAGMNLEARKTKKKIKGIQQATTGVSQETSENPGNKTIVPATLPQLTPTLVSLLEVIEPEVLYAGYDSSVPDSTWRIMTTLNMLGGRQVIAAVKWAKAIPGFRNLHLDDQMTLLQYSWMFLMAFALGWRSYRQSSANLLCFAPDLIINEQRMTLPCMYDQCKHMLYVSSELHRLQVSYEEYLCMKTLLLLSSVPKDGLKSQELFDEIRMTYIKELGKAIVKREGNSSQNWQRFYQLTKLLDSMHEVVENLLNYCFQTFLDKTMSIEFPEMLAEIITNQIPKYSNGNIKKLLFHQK

[8] = target: T4, Glucocorticoid receptor; assay type: functional; remark: listed apart in the source
[9] = target: Sodium channel protein type 5 subunit alpha (Homo sapiens, UniProt Q14524); assay type: functional, cell-based
[10] = target: Histamine H1 receptor (Homo sapiens, UniProt P35367); assay type: functional, cell-based
Also: assay procedure not described here.

Sequence of Sodium channel protein type 5 subunit alpha (Q14524 whole entry): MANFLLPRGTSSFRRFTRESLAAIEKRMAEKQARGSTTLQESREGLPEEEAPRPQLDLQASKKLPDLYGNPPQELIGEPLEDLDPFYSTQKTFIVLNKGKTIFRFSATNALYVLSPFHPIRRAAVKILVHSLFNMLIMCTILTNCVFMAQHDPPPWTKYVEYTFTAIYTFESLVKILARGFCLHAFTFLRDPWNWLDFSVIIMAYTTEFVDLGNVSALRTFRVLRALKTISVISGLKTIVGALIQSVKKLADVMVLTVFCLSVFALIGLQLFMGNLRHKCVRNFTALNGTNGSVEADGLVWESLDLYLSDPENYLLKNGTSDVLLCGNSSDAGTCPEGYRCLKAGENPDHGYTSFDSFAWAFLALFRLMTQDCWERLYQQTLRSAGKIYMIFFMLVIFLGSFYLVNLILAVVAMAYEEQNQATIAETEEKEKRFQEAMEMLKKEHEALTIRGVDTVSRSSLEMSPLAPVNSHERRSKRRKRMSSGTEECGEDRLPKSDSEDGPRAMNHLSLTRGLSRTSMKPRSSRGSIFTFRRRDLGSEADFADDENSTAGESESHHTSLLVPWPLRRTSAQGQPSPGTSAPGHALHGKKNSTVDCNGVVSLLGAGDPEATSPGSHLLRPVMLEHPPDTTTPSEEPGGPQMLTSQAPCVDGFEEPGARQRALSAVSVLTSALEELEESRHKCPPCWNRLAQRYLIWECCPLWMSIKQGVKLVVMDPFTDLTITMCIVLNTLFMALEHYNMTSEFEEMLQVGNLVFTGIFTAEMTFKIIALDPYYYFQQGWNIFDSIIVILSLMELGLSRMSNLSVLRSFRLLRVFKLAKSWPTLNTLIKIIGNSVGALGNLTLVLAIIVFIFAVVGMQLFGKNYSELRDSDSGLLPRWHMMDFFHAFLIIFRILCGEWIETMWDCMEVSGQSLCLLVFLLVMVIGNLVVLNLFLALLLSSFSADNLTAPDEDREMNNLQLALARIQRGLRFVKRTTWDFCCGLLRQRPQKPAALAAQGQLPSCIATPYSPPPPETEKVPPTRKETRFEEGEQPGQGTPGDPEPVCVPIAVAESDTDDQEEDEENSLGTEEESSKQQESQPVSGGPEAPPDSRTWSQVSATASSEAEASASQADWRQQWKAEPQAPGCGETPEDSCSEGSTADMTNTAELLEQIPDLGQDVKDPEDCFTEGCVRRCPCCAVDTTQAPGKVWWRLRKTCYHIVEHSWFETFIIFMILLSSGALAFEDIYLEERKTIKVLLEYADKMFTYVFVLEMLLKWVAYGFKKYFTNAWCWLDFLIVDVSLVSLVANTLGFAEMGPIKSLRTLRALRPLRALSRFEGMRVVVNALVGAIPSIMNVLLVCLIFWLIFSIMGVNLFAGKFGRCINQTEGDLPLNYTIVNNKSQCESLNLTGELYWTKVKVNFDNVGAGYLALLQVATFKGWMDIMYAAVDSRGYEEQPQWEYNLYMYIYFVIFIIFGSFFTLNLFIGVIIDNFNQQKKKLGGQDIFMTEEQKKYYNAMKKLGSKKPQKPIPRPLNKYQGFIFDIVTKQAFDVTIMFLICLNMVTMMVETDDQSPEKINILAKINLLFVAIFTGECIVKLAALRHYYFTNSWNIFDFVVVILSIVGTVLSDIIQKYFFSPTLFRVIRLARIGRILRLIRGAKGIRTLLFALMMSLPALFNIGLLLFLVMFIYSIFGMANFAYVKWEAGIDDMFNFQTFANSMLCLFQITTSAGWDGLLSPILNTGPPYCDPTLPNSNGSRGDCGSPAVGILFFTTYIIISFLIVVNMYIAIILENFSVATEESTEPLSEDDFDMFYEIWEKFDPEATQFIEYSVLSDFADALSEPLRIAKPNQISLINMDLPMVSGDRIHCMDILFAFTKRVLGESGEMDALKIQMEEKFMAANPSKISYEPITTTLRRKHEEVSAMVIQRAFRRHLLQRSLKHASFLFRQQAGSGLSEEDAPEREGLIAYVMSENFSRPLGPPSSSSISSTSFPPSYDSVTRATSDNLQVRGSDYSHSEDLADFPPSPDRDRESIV
Sequence of Cannabinoid receptor 1 (P21554 whole entry): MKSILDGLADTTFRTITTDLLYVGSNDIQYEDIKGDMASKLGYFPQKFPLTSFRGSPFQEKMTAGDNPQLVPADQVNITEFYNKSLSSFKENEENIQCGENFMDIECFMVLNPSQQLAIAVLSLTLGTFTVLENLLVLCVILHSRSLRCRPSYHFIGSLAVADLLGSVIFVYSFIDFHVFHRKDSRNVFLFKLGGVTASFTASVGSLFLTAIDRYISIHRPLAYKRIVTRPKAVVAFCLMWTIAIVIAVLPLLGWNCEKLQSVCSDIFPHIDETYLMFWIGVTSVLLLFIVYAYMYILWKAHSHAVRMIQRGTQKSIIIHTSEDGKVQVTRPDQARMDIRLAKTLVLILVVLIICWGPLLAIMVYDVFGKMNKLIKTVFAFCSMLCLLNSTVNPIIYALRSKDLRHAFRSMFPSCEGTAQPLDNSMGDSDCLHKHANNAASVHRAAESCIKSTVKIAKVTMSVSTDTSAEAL
Sequence of Histamine H1 receptor (P35367 whole entry): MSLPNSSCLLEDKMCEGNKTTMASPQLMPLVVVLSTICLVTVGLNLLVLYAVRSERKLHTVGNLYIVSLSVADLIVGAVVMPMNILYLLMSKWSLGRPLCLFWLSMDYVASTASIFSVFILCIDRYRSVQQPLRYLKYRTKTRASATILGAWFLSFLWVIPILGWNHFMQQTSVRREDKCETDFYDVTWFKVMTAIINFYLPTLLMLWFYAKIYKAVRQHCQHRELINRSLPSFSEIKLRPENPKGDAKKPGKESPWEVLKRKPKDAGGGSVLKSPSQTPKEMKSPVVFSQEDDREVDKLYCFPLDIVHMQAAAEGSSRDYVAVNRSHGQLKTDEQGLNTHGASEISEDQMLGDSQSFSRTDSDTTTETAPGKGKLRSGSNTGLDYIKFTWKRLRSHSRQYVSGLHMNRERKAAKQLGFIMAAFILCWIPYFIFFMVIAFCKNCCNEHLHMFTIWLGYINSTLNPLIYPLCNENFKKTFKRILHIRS
Sequence of Gamma-aminobutyric acid type B receptor subunit 1 (Q9UBS5 whole entry): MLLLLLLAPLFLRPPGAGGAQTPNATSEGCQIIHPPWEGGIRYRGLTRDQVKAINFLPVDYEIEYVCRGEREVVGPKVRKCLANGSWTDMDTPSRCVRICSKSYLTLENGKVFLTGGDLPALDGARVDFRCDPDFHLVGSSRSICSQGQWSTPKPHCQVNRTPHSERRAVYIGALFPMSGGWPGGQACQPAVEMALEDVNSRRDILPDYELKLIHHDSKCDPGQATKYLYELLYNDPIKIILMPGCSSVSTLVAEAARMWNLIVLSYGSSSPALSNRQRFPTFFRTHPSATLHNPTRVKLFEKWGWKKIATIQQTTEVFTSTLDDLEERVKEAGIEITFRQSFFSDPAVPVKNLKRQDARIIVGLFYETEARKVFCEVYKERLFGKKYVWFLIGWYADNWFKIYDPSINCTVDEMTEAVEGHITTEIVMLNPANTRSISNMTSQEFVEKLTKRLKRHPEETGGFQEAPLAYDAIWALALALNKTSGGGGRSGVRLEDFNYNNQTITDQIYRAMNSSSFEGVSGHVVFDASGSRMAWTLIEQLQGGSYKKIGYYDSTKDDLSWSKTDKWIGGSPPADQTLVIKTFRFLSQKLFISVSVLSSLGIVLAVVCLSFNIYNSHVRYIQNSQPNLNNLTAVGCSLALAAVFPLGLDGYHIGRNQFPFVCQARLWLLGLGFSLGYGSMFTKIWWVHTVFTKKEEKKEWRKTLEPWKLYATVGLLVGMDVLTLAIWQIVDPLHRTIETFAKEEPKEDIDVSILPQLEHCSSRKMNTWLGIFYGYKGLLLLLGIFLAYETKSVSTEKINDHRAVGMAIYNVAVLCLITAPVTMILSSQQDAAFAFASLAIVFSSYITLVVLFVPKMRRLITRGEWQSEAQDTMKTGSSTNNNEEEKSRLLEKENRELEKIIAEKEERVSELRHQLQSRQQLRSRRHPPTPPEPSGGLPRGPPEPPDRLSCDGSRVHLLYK

## CN(CC1(C)CCCO1)S(=O)(=O)c1ccc(Cl)c(S(N)(=O)=O)c1 (stereo not given) [MEFRUSIDE]
[1]
  AC50: > 30 µM
[2]
  AC50: > 30 µM

## CO[C@H]1/C=C/O[C@@]2(C)Oc3c(C)c(O)c4c(O)c(c(/C=N/N5CCN(C)CC5)c(O)c4c3C2=O)NC(=O)/C(C)=C\C=C\[C@H](C)[C@H](O)[C@@H](C)[C@@H](O)[C@@H](C)[C@H](OC(C)=O)[C@@H]1C [RIFAMPIN]
[3]
  AC50: > 10 µM
[4]
  AC50: > 10 µM

## N[C@@H](CC(=O)N1CCn2c(nnc2C(F)(F)F)C1)Cc1cc(F)c(F)cc1F [SITAGLIPTIN]
[3]
  AC50: > 10 µM
[5]
  AC50: > 30 µM
[6]
  AC50: > 10 µM
[7]
  AC50: > 30 µM
[8]
  AC50: > 30 µM
[9]
  AC50: > 150 µM
[4]
  AC50: > 10 µM

## CC(C)Cc1ccc(C(C)C(=O)O)cc1 (stereo not given) [IBUPROFEN]
[3]
  AC50: > 10 µM
[6]
  AC50: > 10 µM
[7]
  AC50: > 30 µM
[8]
  AC50: > 30 µM
[4]
  AC50: > 10 µM

## O=C(O)CO [GLYCOLIC ACID]
[1]
  AC50: > 30 µM

## CC(C)N(CCC(C(N)=O)(c1ccccc1)c1ccccn1)C(C)C (stereo not given) [DISOPYRAMIDE]
[10]
  AC50: > 30 µM
[9]
  AC50: > 50 µM

## FC(F)(F)c1ccc(CNc2ccc(Cc3c[nH]c4ncc(Cl)cc34)cn2)cn1 [PEXIDARTINIB]
[1]
  AC50: 1.31 µM
[2]
  AC50: 0.3 µM

## Nc1ccc(S(=O)(=O)Nc2nccs2)cc1 [SULFATHIAZOLE]
[4]
  AC50: > 10 µM

## C[C@H](CCC(=O)O)[C@H]1CC[C@H]2[C@@H]3[C@@H](O)C[C@@H]4C[C@H](O)CC[C@]4(C)[C@H]3CC[C@]12C [URSODIOL]
[5]
  AC50: > 30 µM

## CN1C[C@H](C(=O)N[C@]2(C)O[C@@]3(O)[C@@H]4CCCN4C(=O)[C@H](Cc4ccccc4)N3C2=O)C=C2c3cccc4[nH]cc(c34)C[C@H]21 [ERGOTAMINE]
[5]
  AC50: > 30 µM
[7]
  AC50: > 30 µM
[8]
  AC50: > 30 µM

## C#C[C@]1(O)CC[C@H]2[C@@H]3CCC4=CC(=O)CC[C@@H]4[C@H]3C(=C)C[C@@]21CC [ETONOGESTREL]
[1]
  AC50: > 30 µM
[2]
  AC50: > 30 µM

## C=CC[C@@H]1/C=C(\C)C[C@H](C)C[C@H](OC)[C@H]2O[C@@](O)(C(=O)C(=O)N3CCCC[C@H]3C(=O)O[C@H](/C(C)=C/[C@@H]3CC[C@@H](O)[C@H](OC)C3)[C@H](C)[C@@H](O)CC1=O)[C@H](C)C[C@@H]2OC [TACROLIMUS ANHYDROUS]
[3]
  AC50: > 10 µM
[5]
  AC50: > 30 µM
[6]
  AC50: > 10 µM
[7]
  AC50: > 30 µM
[8]
  AC50: > 30 µM
[9]
  AC50: 45 µM and > 30 µM
[4]
  AC50: > 10 µM

## CN(C)CCc1c[nH]c2ccc(Cn3cncn3)cc12 [RIZATRIPTAN]
[3]
  AC50: > 10 µM
[6]
  AC50: > 10 µM
[10]
  AC50: 20 µM
[9]
  AC50: > 30 µM
[4]
  AC50: > 10 µM

## COc1ccccc1Oc1c(NS(=O)(=O)c2ccc(C(C)(C)C)cc2)nc(-c2ncccn2)nc1OCCO [BOSENTAN]
[6]
  AC50: > 10 µM
[10]
  AC50: > 30 µM
[7]
  AC50: > 30 µM
[8]
  AC50: > 30 µM

## CC(C)(O)CNc1nc(Nc2ccnc(C(F)(F)F)c2)nc(-c2cccc(C(F)(F)F)n2)n1 [ENASIDENIB]
[1]
  AC50: > 30 µM
[2]
  AC50: > 30 µM

## Cc1onc(-c2ccccc2)c1-c1ccc(S(N)(=O)=O)cc1 [VALDECOXIB]
[3]
  AC50: > 10 µM
[6]
  AC50: > 10 µM
[4]
  AC50: > 10 µM

## CC(C)c1nc(N(C)S(C)(=O)=O)nc(-c2ccc(F)cc2)c1/C=C/[C@@H](O)C[C@@H](O)CC(=O)O [ROSUVASTATIN]
[5]
  AC50: > 30 µM
[10]
  AC50: > 30 µM
[7]
  AC50: > 30 µM
[8]
  AC50: > 30 µM

## CCCN(CCC)C(=O)Cc1c(-c2ccc(Cl)cc2)nc2ccc(Cl)cn12 [ALPIDEM]
[3]
  AC50: > 10 µM
[6]
  AC50: > 10 µM
[4]
  AC50: > 10 µM

## C[C@H]1c2cccc(O)c2C(=O)C2=C(O)[C@]3(O)C(=O)C(C(N)=O)=C(O)[C@@H](N(C)C)[C@@H]3[C@@H](O)[C@@H]21 [DOXYCYCLINE]
[4]
  AC50: > 10 µM

## CCN1CCN(Cc2ccc(Nc3ncc(F)c(-c4cc(F)c5nc(C)n(C(C)C)c5c4)n3)nc2)CC1 [ABEMACICLIB]
[5]
  AC50: > 30 µM
[7]
  AC50: > 30 µM
[8]
  AC50: > 30 µM
[9]
  AC50: > 50 µM

## CCOC(=O)c1c(C)cc2c(CO)n[nH]c(=O)c2c1C [OXAGRELATE]
[1]
  AC50: > 30 µM
[2]
  AC50: > 30 µM

## CN1C(C(=O)Nc2ccccn2)=C(O)c2ccccc2S1(=O)=O [PIROXICAM]
[1]
  AC50: > 30 µM

## COc1cc2nccc(Oc3ccc(NC(=O)C4(C(=O)Nc5ccc(F)cc5)CC4)cc3)c2cc1OC [CABOZANTINIB]
[5]
  AC50: > 30 µM
[7]
  AC50: > 30 µM
[8]
  AC50: > 30 µM
[9]
  AC50: > 3 µM

## CCCC(CCC)C(=O)O [VALPROIC ACID]
[3]
  AC50: > 10 µM
[6]
  AC50: > 10 µM

## OC[C@H]1O[C@@H](c2ccc(Cl)c(Cc3ccc(O[C@H]4CCOC4)cc3)c2)[C@H](O)[C@@H](O)[C@@H]1O [EMPAGLIFLOZIN]
[9]
  AC50: > 50 µM

## CC(C(=O)O)c1ccc2c(c1)[nH]c1ccc(Cl)cc12 (stereo not given) [CARPROFEN]
[7]
  AC50: > 30 µM
[8]
  AC50: > 30 µM

## CC[C@@]1(O)C(=O)OCc2c1cc1n(c2=O)Cc2cc3c([N+](=O)[O-])cccc3nc2-1 [RUBITECAN]
[1]
  AC50: > 30 µM
[2]
  AC50: > 30 µM

## OC[C@H]1O[C@@](CO)(O[C@H]2O[C@H](CO)[C@@H](O)[C@H](O)[C@H]2O)[C@@H](O)[C@@H]1O [SUCROSE]
[1]
  AC50: > 30 µM
[2]
  AC50: > 30 µM
[10]
  AC50: > 30 µM

## COc1ccccc1OCCNCC(O)COc1cccc2[nH]c3ccccc3c12 (stereo not given) [CARVEDILOL]
[3]
  AC50: > 10 µM
[6]
  AC50: > 10 µM
[4]
  AC50: 0.0099 µM

## C[C@@H](Oc1cc(-c2cnn(C3CCNCC3)c2)cnc1N)c1c(Cl)ccc(F)c1Cl [CRIZOTINIB]
[5]
  AC50: > 30 µM
[7]
  AC50: > 30 µM
[8]
  AC50: > 30 µM

## OC[C@@H](O)[C@@H](O)[C@H](O)[C@@H](O)CO [SORBITOL]
[1]
  AC50: > 30 µM

## O=C1CN(/N=C/c2ccc(-c3ccc([N+](=O)[O-])cc3)o2)C(O)=N1 [DANTROLENE]
[9]
  AC50: > 50 µM

## C=C[C@H]1C[N@@]2CC[C@H]1C[C@@H]2[C@@H](O)c1ccnc2ccc(OC)cc12 [QUINIDINE]
[10]
  AC50: > 30 µM

## CCN(CC)CCNC(=O)c1c(C)[nH]c(/C=C2\C(=O)Nc3ccc(F)cc32)c1C [SUNITINIB]
[8]
  AC50: > 10 µM

## O=C1CCc2cc(OCCCCc3nnnn3C3CCCCC3)ccc2N1 [CILOSTAZOL]
[9]
  AC50: > 50 µM

## C[C@@H](NCCCc1cccc(C(F)(F)F)c1)c1cccc2ccccc12
[10]
  AC50: > 30 µM

Reference: ChEMBL document CHEMBL5291721, “A preclinical secondary pharmacology resource illuminates target-adverse drug reaction associations of marketed drugs” (Nat Commun, 2023)
